Consider 26 molecules from patent US12134611B2, “Compounds and compositions for treating conditions associated with NLRP activity” (Novartis AG, priority 2018, dated 2024).

T1 sequence (Q96P20 whole entry): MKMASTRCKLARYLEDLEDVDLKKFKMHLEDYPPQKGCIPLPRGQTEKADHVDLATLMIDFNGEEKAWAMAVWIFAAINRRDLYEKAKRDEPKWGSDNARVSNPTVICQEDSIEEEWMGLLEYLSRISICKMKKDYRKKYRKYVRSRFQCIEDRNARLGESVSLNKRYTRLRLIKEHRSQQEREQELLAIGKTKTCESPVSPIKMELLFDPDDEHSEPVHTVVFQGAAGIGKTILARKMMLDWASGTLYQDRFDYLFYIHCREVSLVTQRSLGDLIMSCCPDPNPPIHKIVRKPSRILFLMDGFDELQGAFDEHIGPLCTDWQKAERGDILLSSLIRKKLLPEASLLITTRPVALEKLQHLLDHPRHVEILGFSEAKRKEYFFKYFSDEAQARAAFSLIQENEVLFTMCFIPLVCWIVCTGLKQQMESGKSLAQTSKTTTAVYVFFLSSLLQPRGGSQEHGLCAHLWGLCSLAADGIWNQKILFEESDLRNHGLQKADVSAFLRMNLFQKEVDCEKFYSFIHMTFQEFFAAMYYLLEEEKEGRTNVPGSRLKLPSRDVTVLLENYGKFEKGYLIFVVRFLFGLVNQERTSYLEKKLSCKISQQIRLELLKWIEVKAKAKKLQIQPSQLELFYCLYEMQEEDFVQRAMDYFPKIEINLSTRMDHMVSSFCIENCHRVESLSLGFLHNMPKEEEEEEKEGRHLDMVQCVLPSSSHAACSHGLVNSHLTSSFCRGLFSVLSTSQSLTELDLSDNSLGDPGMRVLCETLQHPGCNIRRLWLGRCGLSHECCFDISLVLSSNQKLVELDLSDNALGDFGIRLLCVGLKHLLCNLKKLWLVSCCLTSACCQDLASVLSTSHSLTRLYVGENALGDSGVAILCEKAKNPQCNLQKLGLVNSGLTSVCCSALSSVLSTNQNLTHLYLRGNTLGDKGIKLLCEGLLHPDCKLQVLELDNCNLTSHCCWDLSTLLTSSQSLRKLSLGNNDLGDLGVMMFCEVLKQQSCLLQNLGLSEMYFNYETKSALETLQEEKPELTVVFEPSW

This experiment addresses T1, hNLRP3 (Homo sapiens, UniProt Q96P20).
T1 construct: THP-1 cells were purchased from the American Type Culture Collection; host or cells: THP-1 cells, PMA-differentiated, stimulated with gramicidin
The experiment can be described thus: IL-1β production in PMA-differentiated THP-1 cells stimulated with gramicidin (hTHP-1 assay). Format: cell-based. The following applies: read-out: NLRP3 Antagonist, hNLRP3 (THP-1, IL-1b) Normalized: GeoMean IC50. The method, then:
Procedure 1: IL-1β Production in PMA-Differentiated THP-1 Cells Stimulated with Gramicidin.
THP-1 cells were purchased from the American Type Culture Collection and sub-cultured according to instructions from the supplier. […] Prior to the experiment, compounds were dissolved in dimethyl sulfoxide (DMSO) to generate a 30 mM stock. […] DMSO was backfilled in the plate to achieve a final DMSO assay concentration of 0.37%. The plate was then sealed and stored at room temperature until required.
THP-1 cells were treated with PMA (Phorbol 12-myristate 13-acetate) (20 ng/ml) for 16-18 hours. On the day of the experiment the media was removed and adherent cells were detached with trypsin for 5 minutes.
Procedure 2: IL-1β Production in PMA-Differentiated THP-1 Cells Stimulated with Gramicidin.
THP-1 cells were purchased from the American Type Culture Collection and sub-cultured according to instructions from the supplier. […] Prior to the experiment THP-1 were treated with PMA (Phorbol 12-myristate 13-acetate) (20 ng/ml) for 16-18 hours. Compounds were dissolved in dimethyl sulfoxide (DMSO) to generate a 30 mM stock. On the day of the experiment the media was removed and adherent cells were detached with trypsin for 5 minutes. […] Final DMSO concentration was at 0.37%. Cells were incubated with compounds for 1 hour and then stimulated with gramicidin (5 μM) (Enzo) for 2 hours. Plates were then centrifuged at 340 g for 5 min. Cell free supernatant (40 μL) was collected using a 96-channel PlateMaster (Gilson) and the production of IL-1β was evaluated by HTRF (cisbio).
1. Experimental procedure
1.2 Compound Preparation • Prepare the 3-fold serial dilution of the compounds with DMSO in a 384-well LDV Microplate using TECAN EVO system to generate the compound source plate with 10 concentrations. Top concentration is 30 mM. FIG. 5 depicts the layout of the microplate.
FIG. 5 depicts the layout of the plates: HC: 100 μM CRID3 (MCC950)+5 μM gramicidin LC: 5 μM Gramicidin.
1.5 IL-1β Detection • 1) Homogenize the 5× diluent #5 with a vortex and add 1 volume of stock solution in 4 volumes of distilled water. • 2) Thaw 20× stock solution of anti-IL1β-Cryptate-antibody and anti-IL1β XL-antibody. […] 2. Data Analysis: • 1.
For the molecule `O=C(N=S1(=O)NC(=O)c2ccc(-n3cccn3)cc21)Nc1c2c(cc3c1CCC3)CCC2` (single isomer, unassigned) [Compound 211a, (S or R)-1-(1,2,3,5,6,7-hexahydro-s-indacen-4-yl)-3-(1-oxido-3-oxo-6-(1H-pyrazol-1-yl)-2,3-dihyclro-1l4-benzo[d]isothiazol-1-ylidene)urea], the concentration for half-maximal inhibition (IC50) fell in the range of 5 to 30 µM.

As for `O=C1CCCS(=O)(=NC(=O)Nc2c3c(cc4c2CCC4)CCC3)N1` (single isomer, unassigned) [Compound 113a, (S or R)-1-(1,2,3,5,6,7-hexahydro-s-indacen-4-yl)-3-(1-oxido-3-oxo-1l6,2-thiazinan-1-ylidene)urea], the IC50 fell in the range of 0.2 to 1 µM.

Take `CC(C)c1cc2c(c(C(C)C)c1CC(=O)N=S1(=O)NC(=O)c3ccc(C(C)(C)O)cc31)COC2` (centres unmarked) [Compound 104, 2-(4,6-diisopropyl-1,3-dihydroisobenzofuran-5-yl)-N-(6-(2-hydroxypropan-2-yl)-1-oxido-3-oxo-2,3-dihydro-1l4-benzo[d]isothiazol-1-ylidene)acetamide]: the IC50 is above 30 µM.

As to `CC(O)(CO)c1ccc2c(c1)S(=O)(=NC(=O)Nc1c3c(cc4c1CCC4)CCC3)NC2=O` (single isomer, unassigned) [Compound 208b, 1-((1S or R)-6-(1,2-dihydroxypropan-2-yl)-1-oxido-3-oxo-2,3-dihydro-1l4-benzo[d]isothiazol-1-ylidene)-3-(1,2,3,5,6,7-hexahydro-s-iadacen-4-yl)urea], the IC50 was in the range of 0.04 to 0.2 µM.

As for `CC(C)(O)c1ccc2c(c1)S(=O)(=NC(=O)Nc1c3c(cc4c1CC4)CCC3)NC2=O` (single isomer, unassigned) [Compound 112a, (R or S)-1-(6-(2-hydroxypropan-2-yl)-1-oxido-3-oxo-2,3-dihydro-1l4-benzo[d]isothiazol-1-ylidene)-3-(2,4,5,6-tetrahydro-1H-cyclobuta[f]inden-3-yl)urea], the IC50 is 0.04 to 0.2 µM.

Consider `O=C(N=S1(=O)NCc2ccccc21)Nc1c2c(cc3c1CCC3)CCC2` (single isomer, unassigned) [Compound 130a, 1-(1,2,3,5,6,7-hexahydro-s-indacen-4-yl)-3-[(1S or 1R)-1-oxo-2,3-dihydro-1-^λ-6,2-benzothiazol-1-ylidene]urea], for which the IC50 is above 30 µM.

In the case of `O=C(N=S1(=O)CCCN1)Nc1c2c(cc3c1CCC3)CCC2` (centres unmarked) [Compound 119, 1-(1,2,3,5,6,7-hexahydro-s-indacen-4-yl)-3-(1-oxido-1l6-isothiazolidin-1-ylidene)urea], the IC50 fell in the range of 5 to 30 µM.

Turning to `O=C(N=S1(=O)NC(=O)c2ccc(-n3cccn3)cc21)Nc1c2c(cc3c1CCC3)CCC2` (centres unmarked) [Compound 211, 1-(1,2,3,5,6,7-hexahydro-s-indacen-4-yl)-3-(1-oxido-3-oxo-6-(1H-pyrazol-1-yl)-2,3-dihydro-1l4-benzo[d]isothiazol-1-ylidene)urea], the IC50 was above 30 µM.

With `O=C1CCCS(=O)(=NC(=O)Nc2c3c(cc4c2CCC4)CCC3)N1` (centres unmarked) [Compound 113, 1-(1,2,3,5,6,7-hexahydro-s-indacen-4-yl)-3-(1-oxido-3-oxo-1l6,2-thiazinan-1-ylidene)urea], the IC50 fell in the range of 1 to 5 µM.

In the case of `CC(C)(O)c1ccc2c(c1)S(=O)(=NC(=O)Cc1c3c(cc4c1CCC4)CCC3)NC2=O` (centres unmarked) [Compound 115, 2-(1,2,3,5,6,7-hexahydro-s-indacen-4-yl)-N-(6-(2-hydroxypropan-2-yl)-1-oxido-3-oxo-2,3-dihydro-1l4-benzo[d]isothiazol-1-ylidene)acetamide], the IC50 was above 30 µM.

`Cc1c(C(F)(F)F)nc2c(c1NC(=O)N=S1(=O)NC(=O)c3ccc(C(C)(C)O)cc31)CCC2` (single isomer, unassigned) [Compound 108b, (S or R)-1-(6-(2-hydroxypropan-2-yl)-1-oxido-3-oxo-2,3-dihydro-1l4-benzo[d]isothiazol-1-ylidene)-3-(3-methyl-2-(trifluoromethyl)-6,7-dihydro-5H-cyclopenta[b]pyridin-4-yl)urea]: the IC50 is above 30 µM.

In the case of `CN1Cc2ccccc2S1(=O)=NC(=O)Nc1c2c(cc3c1CCC3)CCC2` (centres unmarked) [Compound 107], the IC50 is above 30 µM.

On to `CC1(C)CS(=O)(=NC(=O)Nc2c3c(cc4c2CCC4)CCC3)NC1=O` (centres unmarked) [Compound 102, 1-(4,4-dimethyl-1-oxido-3-oxo-1l6-isothiazolidin-1-ylidene)-3-(1,2,3,5,6,7-hexahydro-s-indacen-4-yl)urea], for which the IC50 lay in the range of 0.2 to 1 µM.

`O=C(N=S1(=O)NC(=O)c2ccc(Br)cc21)Nc1c2c(cc3c1CCC3)CCC2` (single isomer, unassigned) [Compound 103a, (R or S)-1-(6-bromo-1-oxido-3-oxo-2,3-dihydro-1l4-benzo[d]isothiazol-1-ylidene)-3-(1,2,3,5,6,7-hexahydro-s-indacen-4-yl)urea]: the IC50 was above 30 µM.

With `O=C(N=S1(=O)NC(=O)c2ccc(Br)cc21)Nc1c2c(cc3c1CCC3)CCC2` (single isomer, unassigned) [Compound 103b, (S or R)-1-(6-bromo-1-oxido-3-oxo-2,3-dihydro-1l4-benzo[d]isothiazol-1-ylidene)-3-(1,2,3,5,6,7-hexahydro-s-indacen-4-yl)urea], the IC50 was 5 to 30 µM.

As to `O=C(N=S1(=O)CCCN1)Nc1c2c(cc3c1CCC3)CCC2` (single isomer, unassigned) [Compound 119a, (R or S)-1-(1,2,3,5,6,7-hexahydro-s-indacen-4-yl)-3-(1-oxido-1l6-isothiazolidin-1-ylidene)urea], the IC50 is 5 to 30 µM.

As to `CN1Cc2ccccc2S1(=O)=NC(=O)Nc1c2c(cc3c1CCC3)CCC2` (single isomer, unassigned) [Compound 107a], the IC50 was above 30 µM.

With `CN1C(=O)c2ccccc2S1(=O)=NC(=O)Nc1c2c(cc3c1CCC3)CCC2` (centres unmarked) [Compound 116], the half-maximal inhibitory concentration (IC50) is above 30 µM.

As for `CC(C)c1cc2c(c(C(C)C)c1CC(=O)N=S1(=O)NC(=O)c3ccc(C(C)(C)O)cc31)COC2` (single isomer, unassigned) [Compound 104a, (S or R)-2-(4,6-diisopropyl-1,3-dihydroisobenzofuran-5-yl)-N-(6-(2-hydroxypropan-2-yl)-1-oxido-3-oxo-2,3-dihydro-1l4-benzo[d]isothiazol-1-ylidene)acetamide], the IC50 was above 30 µM.

As to `CC(C)c1cc(C(F)F)cc(C(C)C)c1CC(=O)N=S1(=O)NC(=O)c2ccccc21` (centres unmarked) [Compound 123a], the IC50 is above 30 µM.

For `CC(O)(CO)c1ccc2c(c1)S(=O)(=NC(=O)Nc1c3c(cc4c1CCC4)CCC3)NC2=O` (single isomer, unassigned) [Compound 208a, 1-((1R or S)-6-(1,2-dihydroxypropan-2-yl)-1-oxido-3-oxo-2,3-dihydro-1l4-benzo[d]isothiazol-1-ylidene)-3-(1,2,3,5,6,7-hexahydro-s-indacen-4-yl)urea], the half-inhibitory concentration (IC50) was 1 to 5 µM.

Regarding `O=C(N=S1(=O)NC(=O)c2ccc(CNCC3CC3)cc21)Nc1c2c(cc3c1CCC3)CCC2` (centres unmarked) [Compound 218, 1-(6-(((cyclopropylmethyl)amino)methyl)-1-oxido-3-oxo-2,3-dihydro-1l4-benzo[d]isothiazol-1-ylidene)-3-(1,2,3,5,6,7-hexahydro-s-indacen-4-yl)urea], the half-inhibitory concentration (IC50) lay in the range of 0.2 to 1 µM.

With `O=C(N=S1(=O)NC(=O)c2ccc(Br)cc21)Nc1c2c(cc3c1CCC3)CCC2` (centres unmarked) [Compound 103, 1-(6-bromo-1-oxido-3-oxo-2,3-dihydro-1l4-benzo[d]isothiazol-1-ylidene)-3-(1,2,3,5,6,7-hexahydro-s-indacen-4-yl)urea], the 50% inhibitory concentration (IC50) lay in the range of 1 to 5 µM.

As to `O=C(N=S1(=O)CC2(COC2)C(=O)N1)Nc1c2c(cc3c1CCC3)CCC2` (single isomer, unassigned) [Compound 132a, (S or R)-1-(1,2,3,5,6,7-hexahydro-s-indaccn-4-yl)-3-(6-oxido-8-oxo-2-oxa-6l6-thia-7-azaspiro[3.4]octan-6-ylidene)urea], the half-maximal inhibitory concentration (IC50) fell in the range of 1 to 5 µM.

`O=C(N=S1(=O)CCC(Cc2ccccc2)C(=O)N1)Nc1c2c(cc3c1CCC3)CCC2` (centres unmarked) [Compound 266, 1-(4-benzyl-1-oxido-3-oxo-1l6,2-thiazinan-1-ylidene)-3-(1,2,3,5,6,7-hexahydro-s-indacen-4-yl)urea]: the IC50 was in the range of 5 to 30 µM.

Regarding `Cc1c(C(F)(F)F)nc2c(c1NC(=O)N=S1(=O)NC(=O)c3ccc(C(C)(C)O)cc31)CCC2` (single isomer, unassigned) [Compound 108a, (R or S)-1-(6-(2-hydroxypropan-2-yl)-1-oxido-3-oxo-2,3-dihydro-1l4-benzo[d]isothiazol-1-ylidene)-3-(3-methyl-2-(trifluoromethyl)-6,7-dihydro-5H-cyclopenta[b]pyridin-4-yl)urea], the IC50 was 0.2 to 1 µM.

Broadly, the IC50 is the point on the concentration scale where inhibition reaches its midpoint.
